From patent US9751926B2 (priority 2013, dated 2017)
Converted amounts (≈) assume the structure as drawn. Like-named read-outs stand apart in the source and are kept apart here.

Assays:
[1] = target: T1, human glucagon receptor (Homo sapiens, UniProt P47871); test: cAMP response (HTRF) of HEK-293 cells stably expressing human glucagon receptor; type: cell-based; conditions: formed cAMP
T1 construct: expressed in transfected cells
Procedure: (§1) cAMP content of cells was determined using a kit from Cisbio Corp. (cat. no. 62AM4PEC) based on HTRF (Homogenous Time Resolved Fluorescence). For preparation, cells were split into T175 culture flasks and grown overnight to near confluency in medium (DMEM/10% FBS). Medium was then removed and cells washed with PBS lacking calcium and magnesium, followed by proteinase treatment with accutase (Sigma-Aldrich cat. no. A6964). Detached cells were washed and resuspended in assay buffer (1×HBSS; 20 mM HEPES, 0.1% BSA, 2 mM IBMX) and cellular density determined. They were then diluted to 400000 cells/ml and 25 μl-aliquots dispensed into the wells of 96-well plates. For measurement, 25 μl of test compound in assay buffer was added to the wells, followed by incubation for 30 minutes at room temperature.

[2] = physchem; type: physicochemical
[3] = target: T2, human GIP receptor (Homo sapiens, UniProt P48546); test: cAMP response (HTRF) of HEK-293 cells stably expressing human GIP receptor; type: cell-based; conditions: Table 1; formed cAMP; read-out: EC50 hGIP R
T2 construct: expressed in transfected cells
T2 sequence (P48546 22-466): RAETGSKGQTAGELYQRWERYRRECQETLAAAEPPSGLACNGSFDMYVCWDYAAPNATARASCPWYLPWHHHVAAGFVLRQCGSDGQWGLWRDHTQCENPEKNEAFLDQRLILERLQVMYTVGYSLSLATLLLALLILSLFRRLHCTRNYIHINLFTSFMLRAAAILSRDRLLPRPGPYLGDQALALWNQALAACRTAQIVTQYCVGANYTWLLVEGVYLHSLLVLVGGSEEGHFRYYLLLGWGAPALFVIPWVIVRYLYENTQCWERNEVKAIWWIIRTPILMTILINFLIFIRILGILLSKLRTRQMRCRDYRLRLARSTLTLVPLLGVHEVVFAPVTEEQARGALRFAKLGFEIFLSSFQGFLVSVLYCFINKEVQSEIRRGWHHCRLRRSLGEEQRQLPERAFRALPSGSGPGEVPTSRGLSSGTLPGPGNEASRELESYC
Procedure: as §1

[4] = target: T3, human GLP-1 receptor (Homo sapiens, UniProt P43220); test: cAMP response (HTRF) of HEK-293 cells stably expressing human GLP-1 receptor; type: cell-based; conditions: Table 6; formed cAMP; read-out: EC50 hGLP-1 R
T3 construct: expressed in transfected cells
Procedure: as §1

[5] = Table 6, read-out: EC50 hGLUC R

T3 sequence (P43220 24-463): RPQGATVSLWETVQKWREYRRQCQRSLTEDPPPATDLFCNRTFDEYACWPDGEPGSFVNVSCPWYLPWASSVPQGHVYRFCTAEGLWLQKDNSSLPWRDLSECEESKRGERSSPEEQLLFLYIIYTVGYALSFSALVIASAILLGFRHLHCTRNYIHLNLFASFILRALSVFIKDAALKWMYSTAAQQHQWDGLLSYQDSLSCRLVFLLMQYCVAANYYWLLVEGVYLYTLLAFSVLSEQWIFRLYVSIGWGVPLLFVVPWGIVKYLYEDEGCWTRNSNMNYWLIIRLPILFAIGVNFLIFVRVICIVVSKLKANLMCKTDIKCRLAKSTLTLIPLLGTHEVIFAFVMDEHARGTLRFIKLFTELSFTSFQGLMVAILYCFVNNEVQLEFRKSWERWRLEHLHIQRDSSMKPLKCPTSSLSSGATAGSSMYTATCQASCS
T1 sequence (P47871 26-477): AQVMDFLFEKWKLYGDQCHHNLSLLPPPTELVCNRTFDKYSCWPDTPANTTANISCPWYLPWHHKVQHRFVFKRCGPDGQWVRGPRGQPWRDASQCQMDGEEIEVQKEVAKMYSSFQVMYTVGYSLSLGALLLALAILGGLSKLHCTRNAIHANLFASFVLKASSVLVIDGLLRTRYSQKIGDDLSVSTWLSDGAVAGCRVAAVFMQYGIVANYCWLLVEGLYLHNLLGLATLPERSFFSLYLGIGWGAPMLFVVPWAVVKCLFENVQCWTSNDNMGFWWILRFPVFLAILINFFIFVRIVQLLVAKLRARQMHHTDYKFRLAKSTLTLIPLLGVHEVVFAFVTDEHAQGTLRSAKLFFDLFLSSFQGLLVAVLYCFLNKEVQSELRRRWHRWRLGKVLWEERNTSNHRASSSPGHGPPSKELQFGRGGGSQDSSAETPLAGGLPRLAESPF

SMILES | EC50 ([1]; Table 1, read-out: EC50 hGlucagon R) [nM] | solubility ([2]; pH 4.5) [µg/mL] | solubility ([2]; pH 7.4) [µg/mL] | EC50 [3] [nM] | EC50 [1, 5] [nM] | solubility at 2 h ([2]; pH 4.5) [µg/mL] | solubility at 2 h ([2]; pH 7.4) [µg/mL] | EC50 [4] [nM]
CC[C@H](C)[C@H](NC(=O)[C@H](CO)NC(=O)[C@H](CC(C)C)NC(=O)[C@H](CC(=O)O)NC(=O)[C@H](CO)NC(=O)[C@@H](NC(=O)[C@H](Cc1ccccc1)NC(=O)[C@@H](NC(=O)CNC(=O)[C@H](CCC(=O)O)NC(=O)C(C)(C)NC(=O)[C@@H](N)Cc1ccc(O)cc1)[C@@H](C)O)[C@@H](C)O)C(=O)N[C@@H](CCC(N)=O)C(=O)N[C@@H](CC(C)C)C(=O)N[C@@H](CCC(=O)O)C(=O)N[C@@H](CCCCN)C(=O)N[C@@H](CCC(=O)O)C(=O)N[C@@H](C)C(=O)N[C@H](C(=O)N[C@@H](CCCNC(=N)N)C(=O)N[C@@H](CC(C)C)C(=O)N[C@@H](Cc1ccccc1)C(=O)N[C@H](C(=O)N[C@@H](CCC(=O)O)C(=O)N[C@@H](Cc1c[nH]c2ccccc12)C(=O)N[C@@H](CC(C)C)C(=O)N[C@@H](CCCCN)C(=O)N[C@@H](C)C(=O)NCC(=O)NCC(=O)N1CCC[C@H]1C(=O)N[C@@H](CO)C(=O)N[C@@H](CO)C(=O)NCC(=O)N[C@@H](C)C(=O)N1CCC[C@H]1C(=O)N1CCC[C@H]1C(=O)N1CCC[C@H]1C(=O)N[C@@H](CO)C(N)=O)[C@@H](C)CC)C(C)C [SEQ ID NO 10, Y-Aib-EGTFTSDLSIQLEKEAVRLFIEWLKAGGPSSGAPPPS-NH2] | > 10000 | 934 (≈ 224 µM) | > 1000 | 12.5 | – | – | – | –
CCCC[C@H](NC(=O)[C@H](CCC(N)=O)NC(=O)[C@@H](NC(=O)[C@H](CO)NC(=O)[C@H](CC(C)C)NC(=O)[C@H](CC(=O)O)NC(=O)[C@H](CO)NC(=O)[C@@H](NC(=O)[C@H](Cc1ccccc1)NC(=O)[C@@H](NC(=O)CNC(=O)[C@H](CCC(=O)O)NC(=O)C(C)(C)NC(=O)[C@@H](N)Cc1ccc(O)cc1)[C@@H](C)O)[C@@H](C)O)[C@@H](C)CC)C(=O)N[C@@H](CCC(=O)O)C(=O)N[C@@H](CCCCN)C(=O)N[C@@H](CCC(=O)O)C(=O)N[C@@H](C)C(=O)N[C@H](C(=O)N[C@@H](CCCNC(=N)N)C(=O)N[C@@H](CC(C)C)C(=O)N[C@@H](Cc1ccccc1)C(=O)N[C@H](C(=O)N[C@@H](CCC(=O)O)C(=O)N[C@@H](Cc1c[nH]c2ccccc12)C(=O)N[C@@H](CC(C)C)C(=O)N[C@@H](CCCCN)C(=O)N[C@@H](C)C(=O)NCC(=O)NCC(=O)N1CCC[C@H]1C(=O)N[C@@H](CO)C(=O)N[C@@H](CO)C(=O)NCC(=O)N[C@@H](C)C(=O)N1CCC[C@H]1C(=O)N1CCC[C@H]1C(=O)N1CCC[C@H]1C(=O)N[C@@H](CO)C(N)=O)[C@@H](C)CC)C(C)C [compound 11] | – | – | – | – | > 1000 | 911 (≈ 219 µM) | > 1000 | 0.001
CCCC[C@H](NC(=O)[C@H](CCC(N)=O)NC(=O)[C@@H](NC(=O)[C@H](CO)NC(=O)[C@H](CC(C)C)NC(=O)[C@H](CC(=O)O)NC(=O)[C@H](CO)NC(=O)[C@@H](NC(=O)[C@H](Cc1ccccc1)NC(=O)[C@@H](NC(=O)CNC(=O)[C@H](CCC(=O)O)NC(=O)C(C)(C)NC(=O)[C@@H](N)Cc1ccc(O)cc1)[C@@H](C)O)[C@@H](C)O)[C@@H](C)CC)C(=O)N[C@@H](CCC(=O)O)C(=O)N[C@@H](CCCCN)C(=O)N[C@@H](CCC(=O)O)C(=O)N[C@@H](C)C(=O)N[C@H](C(=O)N[C@@H](CCCNC(=N)N)C(=O)N[C@@H](CC(C)C)C(=O)N[C@@H](Cc1ccccc1)C(=O)N[C@H](C(=O)N[C@@H](CCC(=O)O)C(=O)N[C@@H](Cc1c[nH]c2ccccc12)C(=O)N[C@@H](CC(C)C)C(=O)N[C@@H](CCCCN)C(=O)N[C@@H](C)C(=O)NCC(=O)NCC(=O)N1CCC[C@H]1C(=O)N[C@@H](CO)C(=O)N[C@@H](CO)C(=O)NCC(=O)N[C@@H](C)C(=O)N1CCC[C@H]1C(=O)N1CCC[C@H]1C(=O)N1CCC[C@H]1C(=O)N[C@@H](CO)C(=O)N[C@@H](CCCCN)C(N)=O)[C@@H](C)CC)C(C)C [compound 12] | – | – | – | – | > 1000 | 943 (≈ 220 µM) | 848 (≈ 198 µM) | 0.0013
CC[C@H](C)[C@H](NC(=O)[C@H](CO)NC(=O)[C@H](CC(C)C)NC(=O)[C@H](CC(=O)O)NC(=O)[C@H](CO)NC(=O)[C@@H](NC(=O)[C@H](Cc1ccccc1)NC(=O)[C@@H](NC(=O)CNC(=O)[C@H](CCC(=O)O)NC(=O)C(C)(C)NC(=O)[C@@H](N)Cc1ccc(O)cc1)[C@@H](C)O)[C@@H](C)O)C(=O)N[C@@H](CCC(N)=O)C(=O)N[C@@H](CC(C)C)C(=O)N[C@@H](CCC(=O)O)C(=O)N[C@@H](CCC(=O)O)C(=O)N[C@@H](CCC(=O)O)C(=O)N[C@@H](C)C(=O)N[C@H](C(=O)N[C@@](C)(CCCN)C(=O)N[C@@H](CC(C)C)C(=O)N[C@@H](Cc1ccccc1)C(=O)N[C@H](C(=O)N[C@@H](CCC(=O)O)C(=O)N[C@@H](Cc1c[nH]c2ccccc12)C(=O)N[C@@H](CC(C)C)C(=O)N[C@@H](CCCCN)C(=O)N[C@@H](C)C(=O)NCC(=O)NCC(=O)N1CCC[C@H]1C(=O)N[C@@H](CO)C(=O)N[C@@H](CO)C(=O)NCC(=O)N[C@@H](C)C(=O)N1CCC[C@H]1C(=O)N1CCC[C@H]1C(=O)N1CCC[C@H]1C(=O)N[C@@H](CO)C(N)=O)[C@@H](C)CC)C(C)C [compound 19] | – | – | – | – | > 1000 | – | – | 0.0012
CC[C@H](C)[C@H](NC(=O)[C@H](CO)NC(=O)[C@H](CC(C)C)NC(=O)[C@H](CC(=O)O)NC(=O)[C@H](CO)NC(=O)[C@@H](NC(=O)[C@H](Cc1ccccc1)NC(=O)[C@@H](NC(=O)CNC(=O)[C@H](CCC(=O)O)NC(=O)C(C)(C)NC(=O)[C@@H](N)Cc1ccc(O)cc1)[C@@H](C)O)[C@@H](C)O)C(=O)N[C@@H](CCC(N)=O)C(=O)N[C@@H](CC(C)C)C(=O)N[C@@H](CCC(=O)O)C(=O)N[C@@H](CCCCN)C(=O)N[C@@H](CCC(=O)O)C(=O)N[C@@H](C)C(=O)N[C@H](C(=O)N[C@@H](CCCNC(=N)N)C(=O)N[C@@H](CC(C)C)C(=O)N[C@@H](Cc1ccccc1)C(=O)N[C@H](C(=O)N[C@@H](CCC(=O)O)C(=O)N[C@@H](Cc1c[nH]c2ccccc12)C(=O)N[C@@H](CC(C)C)C(=O)N[C@@H](CCCCN)C(=O)N[C@@H](C)C(=O)NCC(=O)NCC(=O)N1CCC[C@H]1C(=O)N[C@@H](CO)C(=O)N[C@@H](CO)C(=O)NCC(=O)N[C@@H](C)C(=O)N1CCC[C@H]1C(=O)N1CCC[C@H]1C(=O)N1CCC[C@H]1C(=O)N[C@@H](CO)C(N)=O)[C@@H](C)CC)C(C)C [compound 20] | – | – | – | – | > 1000 | – | – | 0.001
